Active and inactive are the calls of the source. The calls are words filed in the database; no cut-off is given here.
Tests used:
[1] = biological target: T1, Dual specificity tyrosine-phosphorylation-regulated kinase 1A (Rattus norvegicus, UniProt Q63470); test: Inhibition of rat recombinant 6xHis-tagged DYRK1A catalytic domain (1 to 502) expressed in Escherichia coli BL21 (DE3) using N-terminal fluorescein coupled KISGRLSPIMTEQ as substrate after 30 mins by HPLC analysis in presence of 50 uM ATP
[2] = biological target: T2, Dual specificity tyrosine-phosphorylation-regulated kinase 2 (Homo sapiens) (UniProt Q92630); test: Inhibition of human DYRK2 at 5 x 10^-8 M relative to control
T2 sequence (whole entry): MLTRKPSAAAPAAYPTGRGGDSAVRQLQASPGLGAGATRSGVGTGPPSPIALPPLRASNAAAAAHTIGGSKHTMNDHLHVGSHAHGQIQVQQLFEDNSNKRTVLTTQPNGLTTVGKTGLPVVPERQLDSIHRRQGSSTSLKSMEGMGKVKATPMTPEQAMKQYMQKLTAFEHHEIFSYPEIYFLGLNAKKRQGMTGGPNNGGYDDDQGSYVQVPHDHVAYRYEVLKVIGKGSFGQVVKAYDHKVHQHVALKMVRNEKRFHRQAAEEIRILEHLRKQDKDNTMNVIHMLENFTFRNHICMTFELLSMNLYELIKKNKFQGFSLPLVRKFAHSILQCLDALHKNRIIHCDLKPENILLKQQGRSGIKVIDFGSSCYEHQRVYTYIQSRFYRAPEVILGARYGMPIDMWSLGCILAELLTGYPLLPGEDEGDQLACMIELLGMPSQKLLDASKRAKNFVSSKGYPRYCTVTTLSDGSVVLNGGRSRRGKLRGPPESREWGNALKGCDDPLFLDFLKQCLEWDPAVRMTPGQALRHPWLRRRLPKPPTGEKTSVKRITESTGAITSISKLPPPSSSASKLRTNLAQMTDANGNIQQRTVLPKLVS

[3] = biological target: T1, Dual specificity tyrosine-phosphorylation-regulated kinase 1A; test: Inhibition of rat recombinant 6xHis-tagged DYRK1A catalytic domain (1 to 502) expressed in Escherichia coli BL21 (DE3) using N-terminal fluorescein coupled KISGRLSPIMTEQ as substrate after 30 mins by HPLC analysis in presence of 1 mM ATP
[4] = biological target: Glycogen synthase kinase-3 beta (Homo sapiens) (UniProt P49841); test: Inhibition of human GSK-3beta at 5 x 10^-8 M
Glycogen synthase kinase-3 beta (Homo sapiens), sequence (P49841 whole entry, looked up): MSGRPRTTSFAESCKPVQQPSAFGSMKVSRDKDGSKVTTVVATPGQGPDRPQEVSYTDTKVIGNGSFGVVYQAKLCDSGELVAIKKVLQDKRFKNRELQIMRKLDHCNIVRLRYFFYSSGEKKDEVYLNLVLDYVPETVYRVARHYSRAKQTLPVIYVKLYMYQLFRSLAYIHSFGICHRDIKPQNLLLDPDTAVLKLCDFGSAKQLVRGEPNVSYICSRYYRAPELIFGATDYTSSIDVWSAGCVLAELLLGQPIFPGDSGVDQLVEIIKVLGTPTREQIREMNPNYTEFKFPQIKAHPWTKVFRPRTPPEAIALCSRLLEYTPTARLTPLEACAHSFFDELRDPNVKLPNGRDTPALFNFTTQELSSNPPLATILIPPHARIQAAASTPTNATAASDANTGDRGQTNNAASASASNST

[5] = biological target: Serine/threonine-protein kinase pim-1 (Homo sapiens) (UniProt P11309); test: Inhibition of human Pim1 kinase at 5 x 10^-8 M
Serine/threonine-protein kinase pim-1 (Homo sapiens), sequence (P11309 whole entry, looked up): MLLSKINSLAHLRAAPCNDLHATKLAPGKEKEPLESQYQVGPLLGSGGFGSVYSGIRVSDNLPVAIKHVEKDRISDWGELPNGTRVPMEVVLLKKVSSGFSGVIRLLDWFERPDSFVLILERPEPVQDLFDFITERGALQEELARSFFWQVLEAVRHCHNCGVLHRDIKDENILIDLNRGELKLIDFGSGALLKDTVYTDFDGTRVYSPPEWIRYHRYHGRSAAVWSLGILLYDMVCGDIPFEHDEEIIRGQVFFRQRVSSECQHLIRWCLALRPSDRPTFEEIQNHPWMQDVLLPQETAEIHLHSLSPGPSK

[6] = biological target: High affinity nerve growth factor receptor (Homo sapiens) (UniProt P04629); test: Inhibition of human TRKA at 5 x 10^-8 M
High affinity nerve growth factor receptor (Homo sapiens), sequence (P04629 33-796 limits assumed): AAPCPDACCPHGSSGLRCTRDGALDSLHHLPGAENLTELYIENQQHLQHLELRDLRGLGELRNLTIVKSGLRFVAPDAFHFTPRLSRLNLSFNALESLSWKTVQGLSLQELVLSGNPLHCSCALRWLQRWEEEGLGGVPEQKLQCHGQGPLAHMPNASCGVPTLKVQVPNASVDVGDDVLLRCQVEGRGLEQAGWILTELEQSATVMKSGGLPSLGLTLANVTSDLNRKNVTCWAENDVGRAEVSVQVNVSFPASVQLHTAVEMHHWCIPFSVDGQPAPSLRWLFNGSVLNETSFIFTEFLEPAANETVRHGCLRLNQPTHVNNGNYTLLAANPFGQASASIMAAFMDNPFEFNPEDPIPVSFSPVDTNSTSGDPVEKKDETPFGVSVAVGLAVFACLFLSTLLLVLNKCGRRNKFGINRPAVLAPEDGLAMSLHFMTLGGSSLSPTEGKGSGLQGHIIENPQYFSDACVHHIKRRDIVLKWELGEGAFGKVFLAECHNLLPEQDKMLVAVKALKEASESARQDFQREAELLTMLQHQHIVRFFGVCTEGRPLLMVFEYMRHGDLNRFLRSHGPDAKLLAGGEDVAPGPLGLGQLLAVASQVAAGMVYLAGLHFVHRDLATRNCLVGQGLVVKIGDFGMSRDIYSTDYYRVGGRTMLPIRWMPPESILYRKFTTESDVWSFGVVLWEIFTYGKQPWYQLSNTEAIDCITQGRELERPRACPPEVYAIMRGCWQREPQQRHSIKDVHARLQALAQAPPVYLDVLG

[7] = Cytotoxicity against human KB cells assessed as growth inhibition at 10^-5 M after 72 hrs by resazurin dye-based fluorimetric analysis relative to control; format: cell-based; conditions: read-out: GI
[8] = biological target: T3, Dual specificity tyrosine-phosphorylation-regulated kinase 3 (Homo sapiens) (UniProt O43781); test: Inhibition of human DYRK3 at 5 x 10^-8 M relative to control
T3 sequence (whole entry): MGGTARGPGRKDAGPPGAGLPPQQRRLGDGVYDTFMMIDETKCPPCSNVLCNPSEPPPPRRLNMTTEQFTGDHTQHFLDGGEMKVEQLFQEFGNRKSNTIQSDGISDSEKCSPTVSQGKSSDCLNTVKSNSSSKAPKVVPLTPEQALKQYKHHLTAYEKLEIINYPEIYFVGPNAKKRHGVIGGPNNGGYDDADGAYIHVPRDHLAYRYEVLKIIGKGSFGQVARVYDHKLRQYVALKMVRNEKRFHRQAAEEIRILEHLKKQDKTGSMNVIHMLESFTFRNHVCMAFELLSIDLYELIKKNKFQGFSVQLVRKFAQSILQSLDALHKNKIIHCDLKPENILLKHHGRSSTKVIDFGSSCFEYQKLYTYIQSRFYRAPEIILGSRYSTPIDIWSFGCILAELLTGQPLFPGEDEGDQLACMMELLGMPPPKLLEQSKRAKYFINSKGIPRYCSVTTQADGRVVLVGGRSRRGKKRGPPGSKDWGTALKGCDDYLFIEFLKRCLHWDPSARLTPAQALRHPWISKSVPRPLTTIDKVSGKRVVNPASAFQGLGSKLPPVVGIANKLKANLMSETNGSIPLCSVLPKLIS

[9] = biological target: Mitogen-activated protein kinase 1 (Homo sapiens) (UniProt P28482); test: Inhibition of human ERK2 at 5 x 10^-8 M
Mitogen-activated protein kinase 1 (Homo sapiens), sequence (P28482 whole entry, the tested form may be a part): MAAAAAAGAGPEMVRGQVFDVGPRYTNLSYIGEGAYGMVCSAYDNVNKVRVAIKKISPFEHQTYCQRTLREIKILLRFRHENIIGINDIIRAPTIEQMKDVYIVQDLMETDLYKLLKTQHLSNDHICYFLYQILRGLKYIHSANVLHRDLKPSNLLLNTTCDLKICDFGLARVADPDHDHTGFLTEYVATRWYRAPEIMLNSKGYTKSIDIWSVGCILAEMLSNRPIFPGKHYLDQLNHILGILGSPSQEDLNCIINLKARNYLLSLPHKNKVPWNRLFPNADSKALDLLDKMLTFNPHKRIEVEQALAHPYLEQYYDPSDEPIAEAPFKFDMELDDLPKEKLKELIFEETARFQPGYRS

[10] = biological target: T1, Dual specificity tyrosine-phosphorylation-regulated kinase 1A; test: Competitive inhibition of rat recombinant 6xHis-tagged DYRK1A catalytic domain (1 to 502) expressed in Escherichia coli BL21 (DE3) using ATP as substrate by Michaelis-Menten plot analysis
[11] = biological target: Casein kinase I isoform alpha (Homo sapiens) (UniProt P48729); test: Inhibition of human CK1alpha at 5 x 10^-8 M relative to control
Casein kinase I isoform alpha (Homo sapiens), sequence (P48729 2-337 limits assumed): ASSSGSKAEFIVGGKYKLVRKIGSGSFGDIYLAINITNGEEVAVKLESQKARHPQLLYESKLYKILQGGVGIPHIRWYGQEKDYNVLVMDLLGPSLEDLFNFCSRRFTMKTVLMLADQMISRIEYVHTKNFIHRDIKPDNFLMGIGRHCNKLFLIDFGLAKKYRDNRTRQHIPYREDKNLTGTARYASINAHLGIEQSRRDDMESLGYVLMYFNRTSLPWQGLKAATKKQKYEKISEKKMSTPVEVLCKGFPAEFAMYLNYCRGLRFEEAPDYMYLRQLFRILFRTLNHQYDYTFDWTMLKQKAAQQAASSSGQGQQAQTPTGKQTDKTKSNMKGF

[12] = biological target: CDK2/Cyclin A2 (Homo sapiens) (UniProt P24941+P20248); test: Inhibition of human CDK2/cyclin A at 5 x 10^-8 M relative to control; format: protein-complex assay
[13] = Cytotoxicity against human KB cells assessed as growth inhibition at 10^-6 M after 72 hrs by resazurin dye-based fluorimetric analysis relative to control; format: cell-based; conditions: read-out: GI
[14] = biological target: RAC-alpha serine/threonine-protein kinase (Homo sapiens) (UniProt P31749); test: Inhibition of human AKT1 at 5 x 10^-8 M
RAC-alpha serine/threonine-protein kinase (Homo sapiens), sequence (P31749 whole entry): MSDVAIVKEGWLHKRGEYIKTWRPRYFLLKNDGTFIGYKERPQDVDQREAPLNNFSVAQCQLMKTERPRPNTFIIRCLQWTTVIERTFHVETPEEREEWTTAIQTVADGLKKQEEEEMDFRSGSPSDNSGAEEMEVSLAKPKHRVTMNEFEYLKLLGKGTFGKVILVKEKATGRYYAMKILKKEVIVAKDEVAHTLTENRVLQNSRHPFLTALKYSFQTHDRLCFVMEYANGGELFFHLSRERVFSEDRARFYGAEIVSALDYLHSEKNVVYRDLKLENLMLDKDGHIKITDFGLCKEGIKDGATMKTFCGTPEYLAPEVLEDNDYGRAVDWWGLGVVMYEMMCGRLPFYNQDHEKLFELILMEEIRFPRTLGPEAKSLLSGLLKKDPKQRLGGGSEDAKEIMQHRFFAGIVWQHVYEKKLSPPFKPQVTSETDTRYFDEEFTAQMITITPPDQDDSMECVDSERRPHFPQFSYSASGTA

[15] = biological target: T4, Dual specificity tyrosine-phosphorylation-regulated kinase 1A (Homo sapiens, UniProt Q13627); test: Inhibition of DYRK1A (unknown origin) by HPLC analysis
[16] = biological target: T4, Dual specificity tyrosine-phosphorylation-regulated kinase 1A; test: Inhibition of human GST-fused DYRK1A expressed in Escherichia coli using KISGRLSPIMTEQ as substrate

COc1ccc(-c2cnc3[nH]cc(-c4ccccc4)c3c2)c(OC)c1
IC50 [1]: 1170 nM

COc1ccc(-c2cnc3[nH]cc(-c4ccc(OC)cc4)c3c2)cc1
IC50 [1]: 1740 nM

Oc1ccc(-c2c[nH]c3ncc(-c4ccc(O)cc4O)cc23)cc1
inhibition [2]: < 50% | IC50 [3]: 48 nM | IC50 [1]: 11.7 nM | inhibition [4]: inactive | inhibition [5]: inactive | inhibition [6]: inactive | inhibition at 72 h, 10 µM [7]: 83% | inhibition [8]: < 50% | inhibition [9]: inactive | Ki [10]: 5.5 nM | inhibition [11]: < 50% | inhibition [12]: < 50% | inhibition at 72 h, 1 µM [13]: 21%

COc1ccc(OC)c(-c2cnc3[nH]cc(-c4ccc(OC)c(OC)c4)c3c2)c1
IC50 [1]: 1670 nM

COc1cccc(-c2cnc3[nH]cc(-c4cccc(OC)c4)c3c2)c1
IC50 [1]: 14600 nM

Oc1cccc(-c2cnc3[nH]cc(-c4cccc(O)c4)c3c2)c1
IC50 [1]: 105 nM

Oc1ccc(-c2cnc3[nH]cc(-c4ccccc4)c3c2)cc1O
IC50 [1]: 160 nM

Oc1ccc(-c2cnc3[nH]cc(-c4ccc(O)cc4)c3c2)cc1
IC50 [3]: 43 nM | IC50 [1]: 23.1 nM | inhibition [4]: inactive | inhibition [5]: inactive | inhibition [6]: inactive | inhibition at 72 h, 10 µM [7]: 95% | inhibition [9]: inactive | Ki [10]: 2.3 nM | inhibition at 72 h, 1 µM [13]: 51%

c1ccc(-c2cnc3[nH]cc(-c4ccccc4)c3c2)cc1
IC50 [1]: 410 nM

Oc1ccc(-c2cnc3[nH]cc(-c4ccc(O)c(O)c4)c3c2)cc1O
IC50 [3]: 32 nM | IC50 [1]: 12.4 nM | inhibition at 72 h, 10 µM [7]: 11% | inhibition [14]: Active | Ki [10]: 10.1 nM | inhibition at 72 h, 1 µM [13]: 2%

Oc1ccc(-c2c[nH]c3ncc(-c4ccc(O)c(O)c4)cc23)cc1
IC50 [3]: 5.5 nM | IC50 [1]: 3 nM | inhibition [4]: inactive | inhibition [5]: inactive | inhibition [6]: inactive | inhibition at 72 h, 10 µM [7]: 86% | inhibition [9]: inactive | Ki [10]: < 2 nM | inhibition at 72 h, 1 µM [13]: 56%

Oc1ccc(-c2cc3c(-c4ccccc4)c[nH]c3cn2)cc1
IC50 [15]: 27400 nM

COc1ccc(-c2cnc3[nH]cc(-c4ccccc4)c3c2)cc1
IC50 [1]: 960 nM

COc1ccc(-c2cnc3[nH]cc(-c4ccc(OC)c(OC)c4)c3c2)cc1OC
IC50 [1]: 57800 nM

O=C(O[C@@H]1Cc2c(O)cc(O)cc2O[C@@H]1c1cc(O)c(O)c(O)c1)c1cc(O)c(O)c(O)c1 [EPIGALOCATECHIN GALLATE]
IC50 [16]: 330 nM

COc1ccc(-c2cnc3[nH]cc(-c4ccccc4)c3c2)cc1OC
IC50 [1]: 3080 nM

COc1cccc(-c2cnc3[nH]cc(-c4ccccc4)c3c2)c1
IC50 [1]: 7490 nM

Oc1ccc(-c2cnc3[nH]cc(-c4ccc(O)c(O)c4)c3c2)c(O)c1
IC50 [1]: 14.3 nM | inhibition at 72 h, 10 µM [7]: 9% | Ki [10]: 7.6 nM | inhibition at 72 h, 1 µM [13]: 0%

Oc1ccc(-c2cnc3[nH]cc(-c4ccccc4)c3c2)cc1
IC50 [1]: 330 nM

COc1ccc(-c2cnc3[nH]cc(-c4ccc(OC)c(OC)c4)c3c2)c(OC)c1
IC50 [1]: 2880 nM

Oc1cccc(-c2cnc3[nH]cc(-c4ccccc4)c3c2)c1
IC50 [1]: 2700 nM

Oc1ccccc1-c1cnc2[nH]cc(-c3ccccc3)c2c1
IC50 [1]: 3590 nM

COc1ccc(-c2cc3c(-c4ccccc4)c[nH]c3cn2)cc1
IC50 [15]: 17000 nM

Oc1ccc(-c2cnc3[nH]cc(-c4ccccc4)c3c2)c(O)c1
IC50 [1]: 150 nM

COc1ccc(-c2c[nH]c3ncc(-c4ccc(OC)c(OC)c4)cc23)cc1
IC50 [1]: 460 nM

Oc1ccc(O)c(-c2cnc3[nH]cc(-c4ccc(O)c(O)c4)c3c2)c1
IC50 [1]: 39.1 nM | Ki [10]: 12.1 nM

COc1ccc(-c2c[nH]c3ncc(-c4ccc(OC)cc4OC)cc23)cc1
IC50 [1]: 280 nM

COc1ccccc1-c1cnc2[nH]cc(-c3ccccc3)c2c1
IC50 [1]: 960 nM
